In patent publication US10829487B2, “Benzylamino substituted pyridopyrimidinones and derivatives as SOS1 inhibitors” (Boehringer Ingelheim International GmbH, priority 2017, dated 2020):

Assays:
[1] = biological target: protein-protein interaction between SOS1 and KRAS G12D (Homo sapiens (Human), UniProt Q07889); experiment: KRAS::SOS1 AlphaScreen Binding Assay
Source text: KRAS::SOS1 AlphaScreen Binding Assay
Low IC50 values are indicative of high potency of the SOS1 inhibitor compound in this assay setting:
Reagents: • GST-tagged SOS1 (564_1049_GST_TEV_ECO) produced in-house • GST-TEV-SOS1 (564-1049) is purchased from Viva Biotech Ltd. • 6×His-Tev-K-RasG12D(1-169)Avi is purchased from Xtal BioStructures, Inc. (Lot # X129-110) • GDP (Sigma Cat No G7127) • AlphaLISA Glutathione Acceptor Beads (PerkinElmer, Cat No AL109) • AlphaScreen Streptavidin Donor Beads (PerkinElmer Cat No 6760002) • Assay plates: Proxiplate-384 PLUS, white (PerkinElmer, Cat No 6008289)
10 nM (final assay concentration) KRAS G12D, 10 μM (final assay concentration) GDP and 5 nM (final assay concentration) GST-SOS1 are mixed in assay buffer prior to use and kept at room temperature.
AlphaLISA Glutathione Acceptor Beads and AlphaScreen Streptavidin Donor Beads are mixed in assay buffer at a concentration of 10 μg/mL (final assay concentration) each prior to use and kept at room temperature.
Compounds are diluted to a final start concentration of 100 μM and are tested in duplicate. Assay-ready plates (ARPs) are generated using an Access Labcyte Workstation with a Labcyte Echo 550 or 555 accoustic dispenser. For compound a start concentration of 100 μM, 150 nL of compound solution is transferred per well in 11 concentrations in duplicate with serial 1:5 dilutions.
The assay is run using a fully automated robotic system in a darkened room below 100 Lux. 10 μL of KRAS::SOS1 GDP mix is added into columns 1-24 to the 150 nL of compound solution (final dilution in the assay 1:100, final DMSO concentration 1%).
After a 30 minute incubation time 5 μL of bead mix is added into columns 1-23. Plates are kept at room temperature in a darkened incubator. After a further 60 minute incubation, the signal is measured using a PerkinElmer Envision HTS Multilabel Reader using the AlphaScreen specifications from PerkinElmer. Each plate contains the following controls: • diluted DMSO+KRAS::SOS1 GDP mix+bead mix • diluted DMSO+KRAS::SOS1 GDP mix
IC50 values are calculated and analyzed using a 4 parametric logistic model.

[2] = Metabolic (microsomal) stability assay, mouse liver microsomes (MLM); type: in vitro ADME; settings: 1 μM test compound, 37° C.
Description: (§1) Metabolic (Microsomal) Stability Assay: The metabolic degradation of the test compound is assayed at 37° C. with pooled liver microsomes (mouse (MLM), rat (RLM) or human (HLM)). The final incubation volume of 74 μL per time point contains TRIS buffer (pH 7.5; 0.1 M), magnesium chloride (6.5 mM), microsomal protein (0.5 mg/mL for mouse/rat, 1 mg/mL for human specimens) and the test compound at a final concentration of 1 μM. Following a short preincubation period at 37° C., the reactions are initiated by addition of 8 μL beta-nicotinamide adenine dinucleotide phosphate, reduced form (NADPH, 10 mM) and terminated by transfering an aliquot into solvent after different time points. Additionally, the NADPH-independent degradation is monitored in incubations without NADPH, terminated at the last time point by addition of acetonitrile. The quenched incubations are pelleted by centrifugation (1811 g, 5 min). An aliquot of the supernatant is assayed by LC-MS/MS for the amount of parent compound. In vitro intrinsic clearance (CLint, in vitro) is calculated from the time course of the disappearance of the test drug during the microsomal incubation. Each plot is fitted to the first-order elimination rate constant as C(t)=C0*exp(−ke*t), where C(t) and C0 are the concentration of unchanged test drug at incubation time t and that at preincubation and ke is the disappearance rate constant of the unchanged drug. Subsequently, CLint, in vitro (μL min^−1·amount protein) values are converted to CLint, in vitro (mL min^−1·kg^−1) for the whole body. CLint, in vitro data are scaled up using physiological parameters. For better across species comparison the predicted clearance is expressed as percent of the liver blood flow [% QH] in the individual species. In general, high stability (corresponding to low % QH) of the compounds across species is desired.

[3] = Metabolic (microsomal) stability assay, rat liver microsomes (RLM); type: in vitro ADME; settings: 1 μM test compound, 37° C.
Description: as §1

[4] = Metabolic (microsomal) stability assay, human liver microsomes (HLM); type: in vitro ADME; settings: 1 μM test compound, 37° C.
Description: as §1

[5] = tested on: ERK phosphorylation in DLD-1 cells (KRAS G13D); experiment: ERK Phosphorylation Assay (AlphaLISA SureFire Ultra p-ERK1/2); type: cell-based; settings: Homo sapiens, 1 h compound, EGF 50 ng/mL 10 min, read-out: pERK
Description: ERK Phosphorylation Assay
Low IC50 values are indicative of high potency of the SOS1 inhibitor compounds in this assay setting.
ERK phosphorylation assays are performed using the following human cell lines: DLD-1 (ATCC CCL-221): human colon cancer with a KRAS G13D mutation;
DLD-1 cells (ATCC CCL-221) are seeded at 50,000 cells per well in/60 μL of RPMI with 10% FBS, non-essential amino acids, pyruvate and glutamax in Greiner TC 384 plates. The cells are incubated for 1 h at room temperature and then incubated overnight in an incubator at 37° C. and 5% CO2 in a humidified atmosphere. 60 nL compound solution (10 mM DMSO stock solution) is then added using a Labcyte Echo 550 device. After a 1 h incubation in the aforementioned incubator, 3 μL Epidermal Growth Factor (EGF, final concentration 50 ng/mL) is added. 10 minutes later the medium is removed, and the cells lysed by addition of 20 μL of 1.6-fold lysis buffer from the AlphaLISA SureFire Ultra pERK1/2 (Thr202/Tyr204) Assay Kit with added protease inhibitors, 100 nM trametinib+100 nM staurosporine. After 20 minutes of incubation at room temperature with shaking, 6 μL of each lysate sample is transferred to a 384-well Proxiplate and analyzed for pERK (Thr202/Tyr204) with the AlphaLISA SureFire Ultra pERK1/2 (Thr202/Tyr204) Assay Kit. 3 μL Acceptor Mix and 3 μL Donor Mix are added under subdued light and incubated for 2 h at room temperature in the dark, before the signal is measured on a Perkin Elmer Envision plate reader using 384 AlphaScreen settings for Proxiplates. Data are fitted by iterative calculation with variable hill slope. The sigmoidal curve slope is fitted using a default fitting curve to ascertain IC50 values.

CYP3A4 = CYP3A4 (Homo sapiens (Human), UniProt P08684); experiment: Time dependent inhibition of CYP3A4 assay (TDI 3A4); type: in vitro ADME; settings: hydroxy-midazolam formation after 30 min relative to 0 min preincubation; 25 uM compound; human liver microsomes; midazolam substrate
Sequence of CYP3A4 (P08684 whole entry): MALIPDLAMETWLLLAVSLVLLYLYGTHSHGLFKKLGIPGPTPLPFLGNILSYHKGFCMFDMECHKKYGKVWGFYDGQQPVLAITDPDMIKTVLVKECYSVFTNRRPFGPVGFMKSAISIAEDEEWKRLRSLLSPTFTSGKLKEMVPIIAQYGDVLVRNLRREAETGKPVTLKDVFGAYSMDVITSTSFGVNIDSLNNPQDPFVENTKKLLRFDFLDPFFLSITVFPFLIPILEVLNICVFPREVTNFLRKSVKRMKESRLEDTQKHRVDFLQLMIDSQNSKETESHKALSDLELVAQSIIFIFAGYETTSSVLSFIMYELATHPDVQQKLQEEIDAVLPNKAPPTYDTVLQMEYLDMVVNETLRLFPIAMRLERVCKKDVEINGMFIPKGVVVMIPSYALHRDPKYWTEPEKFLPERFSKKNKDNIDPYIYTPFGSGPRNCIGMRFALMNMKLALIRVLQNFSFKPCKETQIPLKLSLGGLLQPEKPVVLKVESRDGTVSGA
Description: Time Dependent Inhibition of CYP3A4 Assay (TDI 3A4):
After preincubation, the incubate is diluted 1:10 and the substrate midazolam is added for the main incubation (15 min). The main incubation is quenched with acetonitrile and the formation of hydroxy-midazolam is quantified via LC/MS-MS. The formation of hydroxy-midazolam from the 30 min preincubation relative to the formation from the 0 min preincubation is used as a readout. Values of less than 100% mean that the substrate midazolam is metabolized to a lower extend upon 30 min preincubation compared to 0 min preincubation. In general low effects upon 30 min preincubation are desired (corresponding to values close to 100%)

[6] = Table 20, KRAS::SOS1 AlphaScreen (SOS1 / KRAS G12D)
[7] = KRAS G12D::SOS1 AlphaScreen, measured without EDTA unless marked with an asterisk

Sequence of protein-protein interaction between SOS1 and KRAS G12D (Q07889 564-1049, stated change not applied): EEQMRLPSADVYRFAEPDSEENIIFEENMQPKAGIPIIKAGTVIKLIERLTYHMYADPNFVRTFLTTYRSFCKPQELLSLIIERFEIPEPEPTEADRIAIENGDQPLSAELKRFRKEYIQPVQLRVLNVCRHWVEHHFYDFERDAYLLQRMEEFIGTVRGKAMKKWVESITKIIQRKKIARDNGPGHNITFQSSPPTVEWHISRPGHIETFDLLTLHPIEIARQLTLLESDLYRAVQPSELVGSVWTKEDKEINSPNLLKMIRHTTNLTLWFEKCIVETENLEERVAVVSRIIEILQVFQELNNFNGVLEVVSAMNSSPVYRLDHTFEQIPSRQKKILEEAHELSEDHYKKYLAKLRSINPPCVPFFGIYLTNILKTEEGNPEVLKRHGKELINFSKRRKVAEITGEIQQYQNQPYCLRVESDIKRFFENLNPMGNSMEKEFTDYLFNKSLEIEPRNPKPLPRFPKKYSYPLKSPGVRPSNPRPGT

Row | Structure (SMILES) | IC50 [1, 6] | MLM [% QH] [2] | RLM [% QH] [3] | HLM [% QH] [4] | IC50 [5] | IC50 [1, 7] | TDI 3A4 [%] (CYP3A4)
1 | Cc1nc(N[C@H](C)c2cccc(C(F)F)c2F)c2cn(C3(C)CC(F)(F)C3)c(=O)cc2n1 [I-14] | 21 nM | 26 % QH | 56 % QH | 27 % QH |  |  | 
2 | Cc1nc(N[C@H](C)c2cccc(C(F)F)c2F)c2cn(C3CC(F)(F)C3)c(=O)cc2n1 [I-13] | 11 nM | <24 % QH | 52 % QH | <24 % QH |  |  | 
3 | Cc1nc(N[C@H](C)c2cccc3c2OCC3(F)F)c2cn(C3(C)CC3)c(=O)cc2n1 [I-101] | 4 nM | 59 % QH | <23 % QH | 36 % QH | 79 nM |  | 
4 | Cc1c(=O)n([C@H]2C[C@@H]2C(F)F)cc2c(N[C@H](C)c3cccc(C(F)F)c3F)ncnc12 [I-165] |  | 54 % QH | <23 % QH | <24 % QH |  | 17 nM | 
5 | Cc1c(=O)n(C2(C(F)F)CC2)cc2c(N[C@H](C)c3cccc(C(F)F)c3F)ncnc12 [I-163] |  |  |  |  |  | 15 nM | 82%
6 | C[C@@H](Nc1ncnc2cc(=O)n(C34CC(F)(C3)C4)cc12)c1cccc(C(F)F)c1F [I-71] | 7 nM | <24 % QH | <23 % QH | <24 % QH |  |  | 
7 | Cc1nc(N[C@H](C)c2cccc(C(C)(F)F)c2F)c2cn(C3(C)CC3)c(=O)c(F)c2n1 [I-86] | 6 nM | 33 % QH | <23 % QH | <24 % QH |  |  | 
8 | Cc1nc(N[C@H](C)c2cccc(C(F)(F)F)c2)c2cn(C(C)C)c(=O)cc2n1 [I-27] | 38 nM | 88 % QH | <23 % QH | <24 % QH |  |  | 
9 | C[C@@H](Nc1ncnc2cc(=O)n(C3(C)CC3)cc12)c1cccc(C(F)(F)F)c1 [I-75] | 15 nM |  |  |  |  |  | 86%
10 | Cc1c(=O)n(-c2cnn(C)c2)cc2c(N[C@H](C)c3cccc(C(F)F)c3F)ncnc12 [I-172] |  | 53 % QH | <23 % QH | <24 % QH |  | 14 nM | 
11 | C[C@@H](Nc1ncnc2cc(=O)n([C@H]3C[C@H](F)C3)cc12)c1cccc(C(F)F)c1F [I-69] | 6 nM | <24 % QH | 40 % QH | <24 % QH |  |  | 
12 | Cc1nc(N[C@H](C)c2cccc(C(F)F)c2C)c2cn(C3(C)CC3)c(=O)cc2n1 [I-20] | 3 nM |  |  |  |  |  | 93%
